Converted amounts (≈) assume the structure as drawn. A value given as a limit tells only on which side of the number the result lay.

This experiment relates to Jurkat. In words: Cytotoxicity against human Jurkat cells after 42 hrs by alamar blue assay. The format is functional, cell-based.
Broadly, the IC50 is the concentration needed to halve the response being measured. Higher therefore signals lower potency. In turn, `O=C1NC(=O)C(c2c[nH]c3cc(OS(=O)(=O)O)ccc23)=C1c1c[nH]c2ccccc12` registered an IC50 of over 25 µg/mL.
`O=C1NC(=O)C(c2c[nH]c3cc(O)ccc23)=C1c1c[nH]c2ccccc12` [ARCYRIARUBIN B]: the IC50 was found to be 10 µg/mL (≈ 29.1 µM).
`O=C1NC(=O)C2=C1c1c([nH]c3cc(O)ccc13)Oc1cccc3[nH]cc2c13` [ARCYROXOCIN B] showed a half-maximal inhibitory concentration (IC50) of 7 µg/mL (≈ 19.6 µM).
`O=C1NC(=O)[C@H]2c3c[nH]c4cccc(c34)-c3[nH]c4ccccc4c3[C@@H]12` [DIHYDROARCYRIACYANIN A] registered an IC50 of 7 µg/mL (≈ 21.4 µM).

The values above are taken from ChEMBL document CHEMBL1158049, “Bisindole alkaloids from myxomycetes Arcyria denudata and Arcyria obvelata” (J Nat Prod, 2006).
